In ChEMBL document CHEMBL5665443, “Enzyme Inhibitor Single Concentration assay results for EUbOPEN Chemogenomics Library” (2024):
*1 amine or outer side, *2 acyl side, *3 side chain or, on linkers, in order; H or OH if unused. Where a SMILES comes first, the peptide text is derived from it. Bridges are numbered along the chain shown (N, C = ends). X1 = O=C(CCC[*:2])[*:1]

Experiments:
Settings in all cases: Compound Concentration 10.0 uM, Hit No
[1] = biological target: Methyl-CpG-binding domain protein 4 (Homo sapiens) (UniProt O95243);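 also: MBD4 activity read as fluorescence at 594 nm from cleavage and release of a quenched duplex DNA oligonucleotide, with APE1 coupled to incise the strand and raise turnover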
Chain of Methyl-CpG-binding domain protein 4 (Homo sapiens) (O95243 whole entry, the tested form may be a part): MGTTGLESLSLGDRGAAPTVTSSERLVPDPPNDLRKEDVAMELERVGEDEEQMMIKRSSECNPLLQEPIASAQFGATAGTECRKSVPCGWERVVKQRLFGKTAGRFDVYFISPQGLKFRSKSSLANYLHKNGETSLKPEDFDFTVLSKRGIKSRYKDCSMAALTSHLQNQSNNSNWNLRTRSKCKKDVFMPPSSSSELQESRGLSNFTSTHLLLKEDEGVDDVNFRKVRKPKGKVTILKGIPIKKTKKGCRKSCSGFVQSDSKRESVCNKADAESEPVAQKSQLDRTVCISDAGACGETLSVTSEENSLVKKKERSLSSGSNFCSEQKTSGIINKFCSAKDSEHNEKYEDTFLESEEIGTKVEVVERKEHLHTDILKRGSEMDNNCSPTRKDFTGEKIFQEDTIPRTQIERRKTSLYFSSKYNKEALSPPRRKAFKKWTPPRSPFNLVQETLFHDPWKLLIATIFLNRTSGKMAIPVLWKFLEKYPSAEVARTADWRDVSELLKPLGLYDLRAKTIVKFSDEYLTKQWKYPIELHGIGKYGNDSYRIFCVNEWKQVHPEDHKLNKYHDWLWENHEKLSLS
Description: Inhibition of MBD4 by quantifying inhibition of MBD4-mediated cleavage and dissociation of quenched duplex DNA oligonucleotides, measured as fluorescence at 594 nm. To generate a functional strand incision and increase turn-over this assay is coupled to APE1.

[2] = biological target: DNA-3-methyladenine glycosylase (Homo sapiens) (UniProt P29372);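 also: enzyme assay where MPG cuts a quenched duplex DNA oligonucleotide probe, paired with APE1 for strand incision and turnover, read as fluorescence at 594 nm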
Chain of DNA-3-methyladenine glycosylase (Homo sapiens) (P29372 whole entry): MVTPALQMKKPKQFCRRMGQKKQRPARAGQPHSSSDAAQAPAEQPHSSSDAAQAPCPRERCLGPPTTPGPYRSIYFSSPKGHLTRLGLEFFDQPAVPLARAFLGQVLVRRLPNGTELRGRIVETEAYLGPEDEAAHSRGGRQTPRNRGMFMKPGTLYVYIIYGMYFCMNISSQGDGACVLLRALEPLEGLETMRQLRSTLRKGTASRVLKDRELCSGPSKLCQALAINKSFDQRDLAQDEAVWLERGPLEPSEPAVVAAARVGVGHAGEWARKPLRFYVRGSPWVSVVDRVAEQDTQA
Description: Inhibition of MPG by quantifying inhibition of MPG-mediated cleavage and dissociation of quenched duplex DNA oligonucleotides, measured as fluorescence at 594 nm. To generate a functional strand incision and increase turn-over this assay is coupled to APE1.

[3] = biological target: T1, Adenine DNA glycosylase (Homo sapiens) (UniProt Q9UIF7);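 also: human MUTYH activity read as 594 nm fluorescence from cleavage and release of a quenched DNA duplex, coupled with APE1 for strand incision, lower signal meaning inhibition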
T1 sequence (whole entry): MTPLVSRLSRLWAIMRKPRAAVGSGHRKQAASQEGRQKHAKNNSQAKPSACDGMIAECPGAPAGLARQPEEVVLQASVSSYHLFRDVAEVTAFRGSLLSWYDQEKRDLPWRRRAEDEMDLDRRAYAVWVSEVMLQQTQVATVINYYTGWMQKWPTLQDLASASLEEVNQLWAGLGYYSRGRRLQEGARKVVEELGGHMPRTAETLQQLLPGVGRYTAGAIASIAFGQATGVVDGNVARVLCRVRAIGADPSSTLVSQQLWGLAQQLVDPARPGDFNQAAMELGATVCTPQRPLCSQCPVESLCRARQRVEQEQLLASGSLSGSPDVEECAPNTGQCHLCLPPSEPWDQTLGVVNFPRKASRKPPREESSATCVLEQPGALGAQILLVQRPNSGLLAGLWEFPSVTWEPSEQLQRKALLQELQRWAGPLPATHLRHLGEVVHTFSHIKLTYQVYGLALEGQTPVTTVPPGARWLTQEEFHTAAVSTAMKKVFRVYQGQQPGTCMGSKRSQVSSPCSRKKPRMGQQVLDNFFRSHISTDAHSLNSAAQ
Description: Inhibition of MUTYH by quantifying inhibition of MUTYH-mediated cleavage and dissociation of quenched duplex DNA oligonucleotides, measured as fluorescence at 594 nm. To generate a functional strand incision and increase turn-over this assay is coupled to APE1.

[4] = biological target: Endonuclease 8-like 1 (Homo sapiens) (UniProt Q96FI4);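 also: fluorescence at 594 nm from quenched duplex DNA oligonucleotides released by NEIL1 cleavage and strand separation, reported as reduction of this enzyme activity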
Chain of Endonuclease 8-like 1 (Homo sapiens) (Q96FI4 whole entry): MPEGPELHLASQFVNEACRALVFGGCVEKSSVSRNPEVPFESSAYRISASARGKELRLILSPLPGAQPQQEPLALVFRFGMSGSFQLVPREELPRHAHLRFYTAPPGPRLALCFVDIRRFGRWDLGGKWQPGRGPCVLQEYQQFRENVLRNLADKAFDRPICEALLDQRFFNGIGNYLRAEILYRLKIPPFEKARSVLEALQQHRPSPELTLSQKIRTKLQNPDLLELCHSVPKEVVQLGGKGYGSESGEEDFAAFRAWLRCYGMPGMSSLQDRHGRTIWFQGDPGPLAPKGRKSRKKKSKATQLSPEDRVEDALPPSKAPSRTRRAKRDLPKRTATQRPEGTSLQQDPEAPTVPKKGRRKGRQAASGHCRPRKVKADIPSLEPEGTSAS
Description: Inhibition of NEIL1 by quantifying inhibition of NEIL1-mediated cleavage and dissociation of quenched duplex DNA oligonucleotides, measured as fluorescence at 594 nm.

[5] = biological target: T2, Endonuclease 8-like 2 (Homo sapiens) (UniProt Q969S2);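 also: fluorescence at 594 nm reports NEIL2 cutting and release of a quenched double-stranded DNA oligo substrate, reduced signal read as inhibition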
T2 sequence (whole entry): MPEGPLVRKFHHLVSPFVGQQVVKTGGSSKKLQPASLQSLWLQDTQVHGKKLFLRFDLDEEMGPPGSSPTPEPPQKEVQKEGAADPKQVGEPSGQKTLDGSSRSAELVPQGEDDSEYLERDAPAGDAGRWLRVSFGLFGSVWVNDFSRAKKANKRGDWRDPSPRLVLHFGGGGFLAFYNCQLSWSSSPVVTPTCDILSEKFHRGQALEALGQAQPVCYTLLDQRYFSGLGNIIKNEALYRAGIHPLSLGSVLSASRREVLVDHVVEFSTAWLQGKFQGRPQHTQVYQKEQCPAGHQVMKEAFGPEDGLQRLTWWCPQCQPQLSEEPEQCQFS
Description: Inhibition of NEIL2 by quantifying inhibition of NEIL2-mediated cleavage and dissociation of quenched duplex DNA oligonucleotides, measured as fluorescence at 594 nm.

[6] = biological target: T3, Endonuclease III-like protein 1 (Homo sapiens) (UniProt P78549);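 also: enzyme assay tracking NTHL1 cutting and release of a quenched double-stranded DNA oligo substrate, read as fluorescence at 594 nm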
T3 sequence (whole entry): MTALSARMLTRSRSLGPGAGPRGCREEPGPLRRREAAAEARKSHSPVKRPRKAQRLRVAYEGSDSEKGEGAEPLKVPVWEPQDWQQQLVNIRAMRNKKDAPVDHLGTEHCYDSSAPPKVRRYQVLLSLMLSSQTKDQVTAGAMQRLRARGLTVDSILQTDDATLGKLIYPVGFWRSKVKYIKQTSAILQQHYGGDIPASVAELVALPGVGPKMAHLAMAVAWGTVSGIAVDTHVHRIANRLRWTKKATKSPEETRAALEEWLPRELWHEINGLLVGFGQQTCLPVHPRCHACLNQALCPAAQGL
Description: Inhibition of NTHL1 by quantifying inhibition of NTHL1-mediated cleavage and dissociation of quenched duplex DNA oligonucleotides, measured as fluorescence at 594 nm.

[7] = biological target: G/T mismatch-specific thymine DNA glycosylase (Homo sapiens) (UniProt Q13569);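 also: human TDG cleavage of quenched duplex DNA oligonucleotides coupled to APE1, strand release read as fluorescence at 594 nm, inhibition of TDG activity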
Chain of G/T mismatch-specific thymine DNA glycosylase (Homo sapiens) (Q13569 whole entry): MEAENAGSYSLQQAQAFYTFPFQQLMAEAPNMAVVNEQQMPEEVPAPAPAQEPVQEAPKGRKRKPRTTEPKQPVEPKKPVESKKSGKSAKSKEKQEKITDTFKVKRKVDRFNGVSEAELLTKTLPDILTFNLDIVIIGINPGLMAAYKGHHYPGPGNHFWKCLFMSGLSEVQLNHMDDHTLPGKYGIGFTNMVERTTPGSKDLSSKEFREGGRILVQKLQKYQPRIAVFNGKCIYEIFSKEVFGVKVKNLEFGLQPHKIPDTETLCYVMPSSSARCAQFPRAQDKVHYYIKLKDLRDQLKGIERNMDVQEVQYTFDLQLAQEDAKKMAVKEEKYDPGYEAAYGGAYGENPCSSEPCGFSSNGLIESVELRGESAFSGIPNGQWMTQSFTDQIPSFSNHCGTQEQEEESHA
Description: Inhibition of TDG by quantifying inhibition of TDG-mediated cleavage and dissociation of quenched duplex DNA oligonucleotides, measured as fluorescence at 594 nm. To generate a functional strand incision and increase turn-over this assay is coupled to APE1.

[8] = biological target: Uracil-DNA glycosylase (Homo sapiens) (UniProt P13051);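 also: UNG excision on a quenched double-stranded DNA oligo probe, with APE1 added for strand incision and turnover, read as fluorescence at 594 nm as strands separate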
Chain of Uracil-DNA glycosylase (Homo sapiens) (P13051 whole entry): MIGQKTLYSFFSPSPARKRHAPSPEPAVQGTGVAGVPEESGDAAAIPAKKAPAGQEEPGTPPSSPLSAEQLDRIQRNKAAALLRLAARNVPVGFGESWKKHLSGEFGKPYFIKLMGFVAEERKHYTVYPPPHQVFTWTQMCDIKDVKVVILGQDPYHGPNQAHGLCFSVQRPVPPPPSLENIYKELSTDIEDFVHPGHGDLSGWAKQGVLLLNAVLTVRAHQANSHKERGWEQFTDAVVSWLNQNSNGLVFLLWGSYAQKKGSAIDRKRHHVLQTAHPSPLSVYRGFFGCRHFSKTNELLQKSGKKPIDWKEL
Description: Inhibition of UNG by quantifying inhibition of UNG-mediated cleavage and dissociation of quenched duplex DNA oligonucleotides, measured as fluorescence at 594 nm. To generate a functional strand incision and increase turn-over this assay is coupled to APE1.

[9] = biological target: N-glycosylase/DNA lyase (Homo sapiens) (UniProt O15527);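 also: OGG1 cleavage of a quenched duplex DNA oligonucleotide, coupled to APE1 for strand incision, read as fluorescence at 594 nm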
Chain of N-glycosylase/DNA lyase (Homo sapiens) (O15527 whole entry): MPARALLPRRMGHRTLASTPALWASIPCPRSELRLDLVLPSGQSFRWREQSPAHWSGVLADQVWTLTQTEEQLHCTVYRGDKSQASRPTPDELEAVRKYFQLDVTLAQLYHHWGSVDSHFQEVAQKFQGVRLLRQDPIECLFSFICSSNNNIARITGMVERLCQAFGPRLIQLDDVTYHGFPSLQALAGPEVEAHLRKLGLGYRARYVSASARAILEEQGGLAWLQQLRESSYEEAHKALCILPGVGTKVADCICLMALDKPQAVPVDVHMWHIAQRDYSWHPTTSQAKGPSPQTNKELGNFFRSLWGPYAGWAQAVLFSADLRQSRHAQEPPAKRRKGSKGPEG
Description: Inhibition of OGG1 by quantifying inhibition of OGG1-mediated cleavage and dissociation of quenched duplex DNA oligonucleotides, measured as fluorescence at 594 nm. To generate a functional strand incision and increase turn-over this assay is coupled to APE1.

Compound	inhibition [1]	inhibition [2]	inhibition [3]	inhibition [4]	inhibition [5]	inhibition [6]	inhibition [7]	inhibition [8]	inhibition [9]
CNC(=O)[C@H]1O[C@@H](n2cnc3c(NCc4cccc(I)c4)ncnc32)[C@H](O)[C@@H]1O	10.4%	2.83%	14.2%	-7.1%	-8.76%	-2.73%	6.72%	-5.89%	–
CC(C)C[C@@H](NC(=O)[C@H](Cc1ccccc1)NC(=O)CNC(=O)[C@@H](C)NC(=O)[C@@H](N)Cc1ccc(O)cc1)C(=O)O	20%	-5.23%	18.5%	–	–	10.5%	20.9%	-7.3%	-5.5%
Fc1cccc(/C=N/N=C/c2cccc(F)c2)c1	4.13%	-2.88%	1.53%	-5.18%	-1.37%	15.4%	5.75%	-6.06%	–
N=C(N)NCCC[C@H](NC(=O)COCC(c1ccccc1)c1ccccc1)C(=O)O	-5.83%	6.97%	3.99%	7.21%	-7.47%	9.99%	-4.14%	–	-5.82%
c1ccc(C2CN3CCC2CC3)cc1 (stereo not given)	22%	3.54%	22.9%	0.158%	-3.92%	26.2%	22.8%	-9.01%	–
C[C@@H](NC(=O)Cc1ccc(C2CC2)cc1)c1ccc(OCC(F)(F)F)cn1	4.9%	10.8%	-6.51%	0.602%	-6.21%	11.3%	4.49%	-2.14%	–
CC[C@H](C)[C@@H]1NC(=O)[C@H](Cc2ccc(OC)cc2)NC(=O)CCCSC[C@@H](C(=O)N2CCC[C@H]2C(=O)N[C@@H](CC(C)C)C(=O)NCC(N)=O)NC(=O)[C@H](CC(N)=O)NC(=O)[C@H](CCC(N)=O)NC1=O (Y(Me)IQNCPLG-NH2; linker N-5 via X1)	-5.48%	-9.15%	-1%	-0.0556%	-7.22%	33.4%	-1.9%	–	-9.58%
CCCCN(CCCC)C(=O)CN1C[C@@H](c2ccc3c(c2)OCO3)[C@H](C(=O)O)[C@H]1c1ccc(OC)cc1	29.1%	19.8%	19.5%	-5.1%	-2.98%	4.86%	32.4%	–	2.58%
CCCCC1=NC2(CCCC2)C(=O)N1Cc1ccc(-c2ccccc2-c2nnn[nH]2)cc1	9.56%	12.4%	12.9%	0.241%	5.76%	-1.01%	11.8%	–	-0.701%
C[C@H]1CN(C[C@H](Cc2ccccc2)C(=O)NCC(=O)O)CC[C@@]1(C)c1cccc(O)c1	21.1%	22.9%	40.2%	-4.44%	-9.01%	34.4%	37.5%	-7.63%	–
CC1(C)SSC(C)(C)[C@@H](NC(=O)[C@@H](N)Cc2ccc(O)cc2)C(=O)NCC(=O)N[C@@H](Cc2ccccc2)C(=O)N[C@H]1C(=O)O	-7.23%	7.58%	1.3%	8.1%	9.5%	17.3%	10.6%	–	-3.29%
C[C@H](NC(=O)[C@H](Cc1ccccc1)NC(=O)[C@H](CCC(N)=O)NC(=O)CNC(=O)[C@@H]1CCCN1C(=O)[C@H](Cc1ccccc1)NC(=O)[C@@H](N)Cc1ccc(O)cc1)C(=O)N[C@@H](Cc1ccccc1)C(=O)N[C@@H](CO)C(=O)O	12.6%	6.08%	2.52%	13.2%	2.96%	21.2%	9.05%	-4.67%	–
CO[C@H]1CC[C@@H](C(=O)c2ccc3nc4c(cc3c2)CCCO4)CC1	-6.79%	-2.23%	-9.06%	1.35%	8.38%	-6.5%	4.03%	–	-3.26%
CCCNC(=O)c1nnc2c(-c3c(F)cccc3OC)cccc2c1N	26.8%	12.4%	24.9%	10.5%	-2.64%	27.8%	24.5%	-1.98%	–
FC(F)(F)c1cccc(-c2noc(-c3cc(-c4ccccc4)c(C(F)(F)F)s3)n2)c1	6.66%	-0.823%	1.81%	–	-4.73%	4.86%	9.3%	–	-2.17%
CN1CCN(Cc2ccc(-c3cccc(C(=O)Nc4ccccc4CC(=O)O)c3)cc2)CC1	18.1%	12.7%	17.7%	17.2%	-2.64%	-1.91%	14.1%	-2.65%	–
Cc1cc(C)c(NC(=O)C2CC3CCC2C3)c(C)c1 (stereo not given)	26.4%	7.56%	27.8%	-1.18%	–	6.35%	5.7%	-9.01%	–
CCOC(=O)c1ncn2c1[C@@H]1CCCN1C(=O)c1cc(OC)ccc1-2	14.4%	-5.68%	-3.58%	-2.51%	-4.43%	-3.56%	-5.12%	-7.79%	–
C[N+]1(C)[C@@H]2C[C@@H](OC(=O)C(O)(c3cccs3)c3cccs3)C[C@H]1[C@@H]1O[C@@H]12	-8.5%	-7.84%	9.11%	8.84%	2.01%	7.05%	-0.0311%	–	-4.25%
CN(Cc1cccc(F)c1CNc1cc(F)c(S(=O)(=O)Nc2cscn2)c(F)c1)C(C)(C)C	28.6%	20.1%	40.5%	2.08%	-2.39%	18.7%	4.92%	-9.64%	–
Cc1ccccc1C(=O)Nc1ccc(C(=O)N2CCCC(N(C)C)c3ccccc32)cc1 (stereo not given)	19.4%	11.6%	10.3%	11.6%	–	21.2%	18.4%	-2.08%	–
c1cnc2cc3c(cc2n1)[C@@H]1CNC[C@H]3C1	15.3%	9.33%	34.7%	4.16%	–	12.9%	13.7%	-9.92%	–
Nc1nc(CC(=O)Nc2ccc(CCNC[C@H](O)c3ccccc3)cc2)cs1	6.31%	5.02%	7.21%	3.71%	-2.64%	22%	2.71%	-1.78%	–
CN1CC[C@@]23CCCC[C@@H]2[C@@H]1Cc1ccc(O)cc13	3.69%	-0.416%	-5.81%	-2.06%	-9.52%	14.6%	-3.74%	-7.94%	–
CCN(c1ccccc1)c1cc(NC)[n+](C)c(C)n1	25.3%	1.67%	7.99%	-3.4%	4.75%	30.3%	7.48%	-8.21%	–
